Where a name gives a salt, the structure may show the parent alone.
How the values were obtained:
[1] = test system: hCMEC; test: ER integrity in 2D monoculture; type: cell-based; conditions: Homo sapiens
Experimental: (§1) For 2D monoculture, hiPS-CM, hCMEC and hCF were cultured as described above and seeded in CellCarrier-384 Ultra microplates (Perkin Elmer, 6057300) at 5000, 2500 and 1750 cells/well respectively.
(§2) Monoculture cells were stained with fluorescent probes diluted in cell culture media, 25 µl media was removed and 25 µl of 2x multiplexed dye was added back to the well for 15 minutes at 37 °C, 5% CO2.

[2] = test system: hiPS-CM; test: ER integrity in 2D monoculture; type: cell-based; conditions: Homo sapiens
Experimental: as §1, §2

[3] = total Cmax, therapeutically relevant maximum total plasma concentration; source not given; cited from earlier work
[4] = test system: cardiac microtissues; test: ER integrity (ER-Tracker blue imaging) in cardiac microtissues; type: cell-based, human; conditions: Homo sapiens; cardiac microtissues, 72 hours, geometric mean; read-out: ER integrity IC50
Experimental: (§3) Cardiac microtissues were stained with fluorescent probes in cell culture media, 40 µl media was removed and 40 µl of 2x multiplexed dye was added back to the well for 30 minutes at 37 °C, 5% CO2. Fluorescent probes used were ER-Tracker blue (2 µM) to measure endoplasmic reticulum (ER) integrity and TMRE (500 nM) to measure mitochondrial membrane potential (ΔΨm). All microtissues were imaged on a Cell Voyager 7000 (YokogawaInc.) and images captured using a 20x objective (Olympus UPLSAPO 0.75 NA, 0.6 mm WD), with a 2 × 2 bin. Plates are imaged live, prior to use the stage temperature was set to 37 °C and CO2 level at 5%. […] Transmitted light images were acquired using a 100 W Halogen lamp as an illumination source. Images were captured over a 60 μm range in the Z-axis with a 5 μm interval between slices. Z-stack images were output as a maximal projection of multiple z-planes.
(§4) Maximum projection images were imported and analysed in the Columbus Platform (v2.7, Perkin Elmer Inc.).

[5] = test system: hCF; test: Mitochondrial membrane potential (ΔΨm) in 2D monoculture; conditions: Homo sapiens, read-out: Mitochondrial membrane potential (ΔΨm) IC50
[6] = test system: cardiac microtissues; test: Mitochondrial membrane potential (ΔΨm, TMRE imaging) in cardiac microtissues; type: cell-based, human; conditions: Homo sapiens; cardiac microtissues, 72 hours, geometric mean; read-out: Mitochondrial membrane potential (ΔΨm) IC50
Experimental: as §3, §4

[7] = test system: hCMEC; test: Cellular viability (ATP depletion) in 2D monoculture; type: cell-based; conditions: Homo sapiens
Experimental: as §1
(§5) Cellular ATP concentrations were assessed using the CellTiter-Glo® Luminescent Cell Viability Assay as per the manufacturer’s instructions (Promega); for cardiac microtissues 40 µl media was removed prior to the addition of 40 µl CellTiter-Glo® reagent. […] Data from the same treatment on minimum of 3 occasions were averaged to represent the mean ATP measurement.

[8] = test system: hiPS-CM; test: as above; type: cell-based; conditions: Homo sapiens
Experimental: as §1, §5

[9] = test system: hCMEC; test: Mitochondrial membrane potential (ΔΨm) in 2D monoculture; type: cell-based; conditions: Homo sapiens
Experimental: as §1, §2

[10] = test system: hiPS-CM; test: as above; type: cell-based; conditions: Homo sapiens
Experimental: as §1, §2

[11] = test system: cardiac spheroids; set-up: method as in PMID 28765558; conditions: alternative cardiac spheroids; cited from earlier work
[12] = test system: hCF; test: Cellular viability (ATP depletion) in 2D monoculture; conditions: Homo sapiens, read-out: Cellular viability (ATP depletion) IC50
[13] = test system: hCF; test: ER integrity in 2D monoculture; conditions: Homo sapiens, read-out: ER integrity IC50
[14] = test system: cardiac microtissues; test: Cellular viability (ATP depletion, CellTiter-Glo) in cardiac microtissues; type: cell-based, human; conditions: Homo sapiens, cardiac microtissues, read-out: Cellular viability (ATP depletion) IC50
Experimental: as §5

IC50 ([1]; 24 hours): 43.6 µM | IC50 ([1]; 72 hours): 31 µM | IC50 ([2]; 24 hours): 10.5 µM | IC50 ([2]; 72 hours): 76.5 µM | IC50 [4]: 3.18 µM | IC50 ([5]; 24 h): > 50 µM | IC50 ([5]; 72 h): > 50 µM | IC50 [6]: 0.18 µM | IC50 ([9]; 24 hours): > 50 µM | IC50 ([9]; 72 hours): > 50 µM | IC50 ([10]; 24 hours): 8.28 µM | IC50 ([10]; 72 hours): 16.9 µM | IC50 ([13]; 24 h): 6.39 µM | IC50 ([13]; 72 h): 46.6 µM
SMILES: COc1cccc2c1C(=O)c1c(O)c3c(c(O)c1C2=O)C[C@@](O)(C(=O)CO)C[C@@H]3O[C@H]1C[C@H](N)[C@H](O)[C@H](C)O1 [Doxorubicin HCl]
Cmax [3]: 15.3 µM | IC50 ([7]; 24 hours): 1.03 µM | IC50 ([7]; 72 hours): 0.1 µM | IC50 ([8]; 24 hours): 9.26 µM | IC50 ([8]; 72 hours): 1.01 µM | Concentration range with significant change in live/dead staining [11]: 5 to 40 µM | IC50 ([12]; 24 h): 0.62 µM | IC50 ([12]; 72 h): 0.11 µM | IC50 ([14]; 24 hours): 15.5 µM | IC50 ([14]; 72 hours, geometric mean): 0.83 µM

Reference: PMC6033897, “Characterization and Validation of a Human 3D Cardiac Microtissue for the Assessment of Changes in Cardiac Pathology” (Scientific Reports, 2018)
